Results on 3 compounds are retold here after patent US8959984B2, “Proteome-wide quantification of small molecule binding to cellular target proteins” (priority 2007, dated 2015).

Like-named read-outs stand apart in the source and are kept apart here.

By Ki is commonly meant the dissociation constant of the complex between target and ligand, obtained from inhibition or displacement. Lower therefore signals tighter binding. A word on the Kd: it is the constant that tells how readily two partners part at equilibrium.

The target in one assay is PKD2 (PRKD2) (Homo sapiens, UniProt Q9BZL6). As to the kind of experiment: binding to AX14596 beads (HeLa lysate, SILAC MS).
PKD2 (PRKD2), sequence (Q9BZL6 whole entry): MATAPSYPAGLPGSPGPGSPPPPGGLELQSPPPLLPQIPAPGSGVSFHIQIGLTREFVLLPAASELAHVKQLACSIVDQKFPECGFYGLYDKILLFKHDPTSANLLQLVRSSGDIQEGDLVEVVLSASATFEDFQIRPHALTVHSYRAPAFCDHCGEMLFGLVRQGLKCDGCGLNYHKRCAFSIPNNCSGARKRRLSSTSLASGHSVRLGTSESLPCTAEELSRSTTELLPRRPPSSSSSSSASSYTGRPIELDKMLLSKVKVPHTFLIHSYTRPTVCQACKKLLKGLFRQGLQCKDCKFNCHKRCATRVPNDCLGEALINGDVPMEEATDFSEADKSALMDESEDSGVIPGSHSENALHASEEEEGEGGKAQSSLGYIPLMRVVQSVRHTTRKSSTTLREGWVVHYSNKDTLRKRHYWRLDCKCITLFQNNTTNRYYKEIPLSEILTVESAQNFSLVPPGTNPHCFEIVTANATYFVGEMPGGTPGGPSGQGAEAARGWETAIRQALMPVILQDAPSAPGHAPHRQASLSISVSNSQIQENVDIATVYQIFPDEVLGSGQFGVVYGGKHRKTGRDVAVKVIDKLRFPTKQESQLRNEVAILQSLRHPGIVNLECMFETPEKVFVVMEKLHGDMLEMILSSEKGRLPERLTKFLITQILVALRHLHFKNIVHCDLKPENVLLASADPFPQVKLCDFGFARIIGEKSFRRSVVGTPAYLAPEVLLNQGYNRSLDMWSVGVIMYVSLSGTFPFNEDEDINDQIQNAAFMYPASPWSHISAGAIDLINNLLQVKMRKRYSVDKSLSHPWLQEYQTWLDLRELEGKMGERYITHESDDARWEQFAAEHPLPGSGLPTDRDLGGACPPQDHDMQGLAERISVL
In a further assay the target is SNRPE (Homo sapiens, UniProt P62304). The assay is described as follows: binding to AX14596 beads (HeLa lysate, SILAC MS).
SNRPE, sequence (P62304 whole entry): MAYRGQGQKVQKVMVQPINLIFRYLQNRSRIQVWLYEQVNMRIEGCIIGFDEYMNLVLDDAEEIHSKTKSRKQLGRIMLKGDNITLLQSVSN
In assay [1] the target is p38a (MAPK14, IPI00002857) (Homo sapiens, UniProt Q16539). As to the kind of experiment: binding to AX14596 beads (HeLa lysate, SILAC MS).
p38a (MAPK14, IPI00002857), sequence (Q16539 whole entry): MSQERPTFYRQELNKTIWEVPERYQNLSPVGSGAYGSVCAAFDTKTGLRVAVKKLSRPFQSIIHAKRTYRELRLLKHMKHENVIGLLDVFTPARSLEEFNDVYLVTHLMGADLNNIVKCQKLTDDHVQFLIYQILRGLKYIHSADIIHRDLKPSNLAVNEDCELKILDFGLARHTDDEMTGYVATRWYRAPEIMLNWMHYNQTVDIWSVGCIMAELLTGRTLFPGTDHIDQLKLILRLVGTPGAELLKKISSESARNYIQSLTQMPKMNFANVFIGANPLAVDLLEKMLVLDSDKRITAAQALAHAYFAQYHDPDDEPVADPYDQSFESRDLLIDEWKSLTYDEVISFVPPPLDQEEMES
A further assay has as its target T1, p38a (Homo sapiens, UniProt Q16539).
T1 construct: endogenous in cells; host or cells: HeLa S3
The assay is described as follows: binding to immobilized V16742 (IVA1/IVA2, HeLa lysate, MS). Conditions: p38a (IPI00221141.2).

The target in a further assay is T2, DYRK1A (IPI00219250) (Homo sapiens, UniProt Q13627).
T2 construct: endogenous in cells; host or cells: HeLa S3 cell lysate
As to the kind of experiment: binding to VI16742 beads (HeLa lysate, SILAC MS).

The next assay concerns the target Erk1 (Homo sapiens, UniProt P27361). The assay is described as follows: binding to immobilized V16742 (IVA1/IVA2, HeLa lysate, MS).
In another assay the target is NAMPT (Homo sapiens, UniProt P43490).
NAMPT, sequence (P43490 whole entry): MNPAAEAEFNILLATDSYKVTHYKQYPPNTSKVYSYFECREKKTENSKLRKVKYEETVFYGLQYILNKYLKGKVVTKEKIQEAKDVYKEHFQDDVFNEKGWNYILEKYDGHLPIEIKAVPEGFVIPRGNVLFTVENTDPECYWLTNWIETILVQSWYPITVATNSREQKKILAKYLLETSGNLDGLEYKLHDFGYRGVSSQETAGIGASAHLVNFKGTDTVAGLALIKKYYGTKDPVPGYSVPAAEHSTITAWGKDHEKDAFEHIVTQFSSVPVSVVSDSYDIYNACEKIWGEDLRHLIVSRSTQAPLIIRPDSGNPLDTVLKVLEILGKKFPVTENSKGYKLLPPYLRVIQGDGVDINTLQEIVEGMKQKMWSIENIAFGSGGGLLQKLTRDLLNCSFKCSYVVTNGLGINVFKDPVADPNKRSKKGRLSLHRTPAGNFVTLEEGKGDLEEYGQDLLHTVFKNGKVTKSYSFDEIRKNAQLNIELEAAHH

Erk1, sequence (P27361 whole entry): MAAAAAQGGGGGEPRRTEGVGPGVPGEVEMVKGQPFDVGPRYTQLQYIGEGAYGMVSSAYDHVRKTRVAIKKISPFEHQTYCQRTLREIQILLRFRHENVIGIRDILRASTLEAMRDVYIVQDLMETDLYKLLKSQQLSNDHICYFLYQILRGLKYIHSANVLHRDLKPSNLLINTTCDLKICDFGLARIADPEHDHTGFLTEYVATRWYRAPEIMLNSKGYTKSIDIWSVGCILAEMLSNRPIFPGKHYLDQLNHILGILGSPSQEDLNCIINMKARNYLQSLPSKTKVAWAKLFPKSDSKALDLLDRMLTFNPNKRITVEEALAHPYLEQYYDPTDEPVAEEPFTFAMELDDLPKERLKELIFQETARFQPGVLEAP
T1 sequence (Q16539 whole entry): as the sequence (Q16539 whole entry) above
Protocol for Erk1: Using the three populations of SILAC-labelled cells and the three different inhibitor resins, two parallel experiments termed as IVA1 (In Vitro Association, Setting 1) and IVA2 (In Vitro Association, Setting 2) were performed. […] In IVA2, SILAC encoded HeLa cells lysates were subjected to two parallel rounds of consecutive affinity purification at the highest ligand density where the supernatant left behind after the first IVA was used for the second round of IVA. An additional incubation of Hela cell lysate with control beads devoid of immobilized inhibitor was also performed to distinguish background binders.
A common IPI identifier template was assigned to peptides based on the MASCOT html-output file for the IVA2 setting in first experiment. The proteins hits identified based on unique peptides were filtered for mass error and MASCOT score. Eventually, the hits identified in both first and second IVA2 experiments were quantified for IVA2 setting of first experiment by MSQuant. […] A next round of sorting was done to filter out protein hits that are less than 50% enriched in the IVA second round compared to IVA first round. This is because at enrichment below 50%, there could be significant errors in deducing kd values for the corresponding targets. […] The same set of targets was also quantified in IVA2 and IVA1 settings of an independent second experiment.

Consider `COc1cc2ncnc(Nc3ccc(F)c(Cl)c3)c2cc1OCCCN` [AX14596], for which, at PKD2 (PRKD2), the Ki came to 385 µM, the “r (3 mg/1 mg lysate)” value was found to be 2.53, the “r (5 h/2.5 h inc. time)” value is given as 0.96 and the “rAVERAGE (2. inc/1. inc)” value is given as 0.79. Also, at PKD2 (PRKD2), the “rAVERAGE (control/1. inc)” value is given as 0.08. For the same compound, on SNRPE, the affinity corresponds to a Ki of 106 µM, the “r (3 mg/1 mg lysate)” value is given as 2.57, the “r (5 h/2.5 h inc. time)” value is listed as 1.88 and the “rAVERAGE (2. inc/1. inc)” value is recorded as 0.51. In addition, the “rAVERAGE (control/1. inc)” value on SNRPE is reported as 0.07. Besides, in assay [1], the affinity corresponds to a Ki of 332 µM, the “r (3 mg/1 mg lysate)” value is given as 2.74, the “r (5 h/2.5 h inc. time)” value is 1.15 and the “rAVERAGE (2. inc/1. inc)” value is 0.77. The “rAVERAGE (control/1. inc)” value in assay [1] amounted to 0.06.
Regarding `CC(C)n1c(=O)ccc2cnc(Nc3ccc(OCCN)cc3)nc21` [V16742], the “Percent bound at various 16742 conc” value was determined as 4.98% on p38a (Experiment 1, 1.87 μM 16742); 6.72% on p38a (Experiment 1, 8.74 μM 16742); 49.78% at p38a (Experiment 1, 52 μM 16742); 3.02% on p38a (Experiment 2, 1.87 μM 16742); 1.43% on p38a (Experiment 2, 8.74 μM 16742); 24.52% on p38a (Experiment 2, 52 μM 16742). For the same compound, the “Percent bound at various 16742 conc” value on Erk1 (Erk1, Experiment 1, 1.87 μM 16742) came out at 1.06%; on Erk1 (Erk1, Experiment 1, 8.74 μM 16742) it was 2.41%; on Erk1 (Erk1, Experiment 1, 52 μM 16742), 52.52%; on Erk1 (Erk1, Experiment 2, 1.87 μM 16742) it was 0.91%; on Erk1 (Erk1, Experiment 2, 8.74 μM 16742), 2.38%; at Erk1 (Erk1, Experiment 2, 52 μM 16742), 45.83%. Moreover, the dissociation constant Kd on p38a (Experiment 1, read-out: Kd) is 58.3 µM; at p38a (Experiment 2, read-out: Kd) it was 167 µM; on p38a (average of two experiments, read-out: Kd Avg), 113 µM; at Erk1, 57.8 µM; at Erk1 (Kd Avg, Erk1, average of two experiments) it was 64.4 µM; at Erk1 (Kd, Erk1, Experiment 2), 71.1 µM. The compound further returned a Kd at Erk1 (Kd, Erk1, immobilized V16742) of 64.4 µM. Further, on DYRK1A (IPI00219250) (control beads vs first incubation), the “rAVERAGE (CTRL/1 INC)” value was determined as 0.08. The compound further gave a Ki on DYRK1A (IPI00219250) (immobilized VI16742) of 83.8 µM. Also, the “rAVERAGE (2 INC/1 INC)” value on DYRK1A (IPI00219250) (second vs first incubation) is 0.62.
Take `COc1cc2ncnc(Nc3ccc(F)c(Cl)c3)c2cc1OCCCN1CCOCC1` [gefitinib]: on NAMPT, the “rAVERAGE (10 nM/0 nM Gef.)” value came to 0.71, the “rAVERAGE (100 nM/0 nM Gef.)” value is listed as 0.74, the “rAVERAGE (1000 nM/0 nM Gef.)” value is 0.73 and the “rAVERAGE (10000 nM/0 nM Gef.)” value turned out to be 0.92.
